Earlier results, collected in US20080160064A1, “DEVICES AND METHODS FOR […]” (priority 2006, published 2008).

Target: hemoglobin (Homo sapiens, UniProt P68871+P69905)
Details: higher affinity than oxygen

hemoglobin, sequence (P69905 2-142 limits assumed): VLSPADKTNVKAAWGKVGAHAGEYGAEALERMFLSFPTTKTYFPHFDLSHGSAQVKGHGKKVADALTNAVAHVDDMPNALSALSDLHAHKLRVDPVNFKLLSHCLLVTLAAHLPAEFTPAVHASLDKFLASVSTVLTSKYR
hemoglobin, sequence (P68871 2-147 limits assumed): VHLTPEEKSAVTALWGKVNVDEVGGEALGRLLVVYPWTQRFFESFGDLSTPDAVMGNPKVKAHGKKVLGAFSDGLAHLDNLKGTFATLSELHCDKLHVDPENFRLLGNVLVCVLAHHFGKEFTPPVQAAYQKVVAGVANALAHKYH

Compound: [C-]#[O+] [CO, Carbon monoxide]
- affinity for hemoglobin relative to oxygen: ~200 ×
